In article PMC3466195, “Potassium Acts as a GTPase-Activating Element on Each Nucleotide-Binding Domain of the Essential Bacillus subtilis EngA” (PLoS ONE, 2012):

Key:
[1] = system: T. maritima EngA; conditions: cited from earlier work
[2] = target: T1, GD2-KH (Bacillus subtilis, UniProt P50743); assay: GTP hydrolysis coupled-enzymatic assay; format: biochemical
T1 construct: two shortened EngA variants that only contain GD1 or GD2-KH; His-tag (from pET15b; purified on Ni-IDA) (N); made in house; host or cells: E. coli C41(DE3)
T1 sequence (P50743 173-436): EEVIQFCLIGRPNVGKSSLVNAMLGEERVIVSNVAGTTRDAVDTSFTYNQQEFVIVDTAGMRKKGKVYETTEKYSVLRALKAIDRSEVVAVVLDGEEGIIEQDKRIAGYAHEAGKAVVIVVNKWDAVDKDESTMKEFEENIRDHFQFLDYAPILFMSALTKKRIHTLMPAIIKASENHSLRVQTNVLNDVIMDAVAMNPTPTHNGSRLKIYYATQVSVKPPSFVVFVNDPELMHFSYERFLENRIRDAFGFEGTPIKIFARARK
Experimental: (§1) GTPase activities were determined using a coupled-enzymatic assay containing pyruvate kinase and lactate dehydrogenase as previously described. The proteins (2 µM or 8 µM of EngA in the presence of KCl or NaCl, respectively, and 4 µM for GD1 and 12.5 µM for GD2-KH) and the coupled assay system containing 50 mM Tris/HCl pH 8, 4 mM phosphoenol pyruvate, 0.4 mM NADH, 1 mM MgCl2, 30 µg pyruvate kinase and 15 µg lactate dehydrogenase, were mixed into a quartz cuvette (final volume of 750 µl) in the presence of GTP (up to 1 mM) and salts, either KCl or NaCl, as indicated in the figure legends. When the GTPase and XTPase activities of the wild-type EngA and the single point mutants were studied (Fig. 7), the assay medium (final volume of 500 µl) contained 3 mM MgCl2 and the pyruvate kinase was increased to 120 µg to ensure an immediate conversion of XDP back into XTP. The reaction was started by adding 3.2 µM or 0.8 µM of wild-type EngA or single point mutants in the absence or presence of 300 mM K^+, respectively. GTP or XTP hydrolysis was monitored by following the change in absorbance at 340 nm upon conversion of NADH to NAD^+, for 10 min at 37°C, using either a Hitachi U3350 or a Safas UVmc^2 spectrophotometer. The slope measured (ΔDO/min) was used to calculate the activity of the protein taking into account the εNADH340nm = 6220 l.mol^−1.cm^−1. Control experiments were systematically performed in the absence of nucleotides (protein alone) or in the absence of proteins (nucleotides alone) and the activities measured in all cases were negligible. Between many different EngA preparations, the specific activities measured at 1 mM GTP varied between 100–130 nmoles/min/mg protein.

[3] = target: T2, GD1 (Bacillus subtilis, UniProt P50743); assay: GTP hydrolysis coupled-enzymatic assay; format: biochemical
T2 construct: two shortened EngA variants that only contain GD1 or GD2-KH; His-tag (from pET15b; purified on Ni-IDA) (N); made in house; host or cells: E. coli C41(DE3)
T2 sequence (P50743 4-167 limits assumed): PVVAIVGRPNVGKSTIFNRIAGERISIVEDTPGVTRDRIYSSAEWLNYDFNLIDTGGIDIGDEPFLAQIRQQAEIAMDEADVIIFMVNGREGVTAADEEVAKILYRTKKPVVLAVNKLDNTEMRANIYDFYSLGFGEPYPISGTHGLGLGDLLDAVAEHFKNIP
Experimental: as §1

[4] = target: T3, B. subtilis EngA (Bacillus subtilis, UniProt P50743); format: biochemical
T3 construct: full-length EngA (named hereafter as EngA) and its two shortened EngA variants, GD1 and GD2-KH were overexpressed in E. coli; His-tag (from pET15b; purified on Ni-IDA) (N); made in house; host or cells: E. coli C41(DE3)
Experimental: as §1

[5] = target: T4, B. subtilis EngA (Bacillus subtilis, UniProt P50743); assay: Fluorescence resonance energy transfer between tryptophan residues and MANT moiety; format: binding; conditions: FRET Trp to MANT
T4 construct: full-length EngA (named hereafter as EngA) and its two shortened EngA variants, GD1 and GD2-KH were overexpressed in E. coli; His-tag (from pET15b; purified on Ni-IDA) (N); made in house; host or cells: E. coli C41(DE3)
T4 sequence (P50743 1-436): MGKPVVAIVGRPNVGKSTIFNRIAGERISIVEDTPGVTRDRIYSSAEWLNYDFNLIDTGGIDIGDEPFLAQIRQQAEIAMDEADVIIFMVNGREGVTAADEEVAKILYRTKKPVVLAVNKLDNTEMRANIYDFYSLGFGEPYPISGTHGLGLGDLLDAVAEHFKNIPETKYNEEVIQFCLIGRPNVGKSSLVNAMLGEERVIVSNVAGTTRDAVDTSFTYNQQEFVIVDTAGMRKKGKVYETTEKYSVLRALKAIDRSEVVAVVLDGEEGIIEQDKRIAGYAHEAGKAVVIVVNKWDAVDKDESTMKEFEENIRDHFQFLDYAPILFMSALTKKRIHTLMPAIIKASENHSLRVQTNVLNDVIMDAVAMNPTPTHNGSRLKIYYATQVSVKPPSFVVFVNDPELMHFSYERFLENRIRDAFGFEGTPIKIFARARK
Experimental: Fluorescence measurements were performed essentially as described previously for the unmodified nucleotides or the N-methylanthraniloyl-GDP (MANT-GDP) analogue using a PTI QuantaMaster 4 spectrofluorimeter, [62]. Dissociation constants (K D) for nucleotides were calculated by monitoring intrinsic tryptophan fluorescence variation using 295 nm excitation wavelength, with a slit width of 2 nm, and scanning emission fluorescence between 310 and 400 nm (for the unmodified nucleotide) or 400 and 500 nm (for MANT-GDP), with a slit width of 4 nm. For the intrinsic tryptophan fluorescence, inner filter effect was corrected using N-Acetyltryptophanamide (NATA) as a reference. […] The fluorescence was normalized respective to the integrated value of the fluorescence peak obtained in the absence of unmodified nucleotide (between 310 and 400 nm) or MANT-GDP (between 400 and 500 nm). The data were fitted using the GraFit 5.0.11 software with the following equation: [drawing 1] where F is the relative fluorescence intensity in the presence of nucleotide, F min is the relative fluorescence in the absence of nucleotide, F max is the fluorescence intensity at saturating concentration of nucleotide, L is the nucleotide concentration, E is the protein concentration and K D is the dissociation constant of the protein-nucleotide complex.

For [K+] [K^+, potassium], which GTPase activity ([1]; 0.4 M KCl) is on record?
The GTPase activity was 0.11 min⁻¹.

And the “stimulation of GTPase activity by K+” value ([1]; T. maritima EngA)?
The value was “about 4 fold”.

What about the GTPase activity ([2]; GD2-KH, 1M KCl) of the same compound?
Its GTPase activity is roughly 0.45 min⁻¹.

And the “increase of GTPase activity upon K+ binding” value ([2]; GD2 domain)?
Its value is roughly 100 fold.

What about the “K+ concentration giving maximal GTPase activity” value ([3]; GD1) of the same compound?
The value was 500 mM.

And the GTPase activity ([3]; GD1, 1M KCl)?
Its GTPase activity is roughly 3.4 min⁻¹.

And the “increase in catalytic efficiency of EngA” value ([4]; 300 mM K+ vs absence of K+)?
The value was 20 fold.

And the “stimulation of the GTPase activity of EngA” value ([4]; 1 M KCl, 1 mM GTP)?
Its value is roughly 15 fold.

What about the GTPase activity ([4]; EngA, 0.4 M KCl) of the same compound?
The GTPase activity was roughly 5 min⁻¹.

Which Kd ([5]; 300 mM KCl) does the source give for CNc1ccccc1C(=O)O[C@H]1[C@@H](O)[C@H](n2cnc3c(=O)[nH]c(N)nc32)O[C@@H]1COP(=O)(O)OP(=O)(O)O [mant-GDP, N-methylanthraniloyl-GDP] here?
Its Kd is 2.9 ± 0.2 µM.

And the Kd ([5]; no salt)?
The Kd was 3.1 ± 0.2 µM.

For [Na+] [sodium], which “effect of salt on the GTPase activity of EngA” value ([4]; K+ replaced by other monovalent cation, 1 mM GTP) is on record?
The value was “no effect”.
